Assay results taken from paper PMC12041370, “AARS2-catalyzed lactylation induces follicle development and premature ovarian insufficiency” (Cell Death Discovery, 2025).
Residue numbers refer to the chain shown, from its start.

Columns and labels:
AARS2 [1] = target: T1, AARS2 (Homo sapiens, UniProt Q5JTZ9); test: in vitro lactylation of PDHA1 and CPT2, Western blot; format: biochemical; conditions: β-alanine in reaction mix, concentration not told
T1 construct: full-length human AARS2 985 aa
T1 sequence (Q5JTZ9 11-985): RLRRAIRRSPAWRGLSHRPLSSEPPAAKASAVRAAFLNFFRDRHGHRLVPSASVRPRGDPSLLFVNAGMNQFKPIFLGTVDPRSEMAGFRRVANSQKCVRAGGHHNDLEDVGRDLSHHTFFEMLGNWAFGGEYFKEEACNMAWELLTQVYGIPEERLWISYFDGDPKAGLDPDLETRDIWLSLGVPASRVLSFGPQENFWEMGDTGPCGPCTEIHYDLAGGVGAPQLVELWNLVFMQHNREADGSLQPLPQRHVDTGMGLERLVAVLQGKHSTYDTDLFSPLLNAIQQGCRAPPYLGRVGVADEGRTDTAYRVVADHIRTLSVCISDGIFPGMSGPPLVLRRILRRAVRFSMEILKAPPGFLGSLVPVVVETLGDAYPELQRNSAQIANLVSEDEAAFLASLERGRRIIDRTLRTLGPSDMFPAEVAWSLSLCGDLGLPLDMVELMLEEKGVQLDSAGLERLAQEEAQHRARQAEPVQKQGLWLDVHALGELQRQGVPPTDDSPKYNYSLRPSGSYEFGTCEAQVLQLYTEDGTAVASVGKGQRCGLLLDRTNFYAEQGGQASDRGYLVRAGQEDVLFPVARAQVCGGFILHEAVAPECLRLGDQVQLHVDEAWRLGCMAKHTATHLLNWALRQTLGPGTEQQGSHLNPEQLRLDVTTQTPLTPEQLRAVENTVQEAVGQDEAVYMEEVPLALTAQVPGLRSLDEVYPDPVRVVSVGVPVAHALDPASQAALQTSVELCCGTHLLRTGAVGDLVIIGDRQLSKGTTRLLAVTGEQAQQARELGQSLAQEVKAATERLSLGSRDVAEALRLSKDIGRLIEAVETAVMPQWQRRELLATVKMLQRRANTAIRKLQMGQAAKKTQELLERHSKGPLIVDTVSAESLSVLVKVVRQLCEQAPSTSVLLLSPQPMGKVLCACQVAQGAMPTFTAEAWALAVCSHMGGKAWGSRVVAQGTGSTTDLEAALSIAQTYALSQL

AARS2 [2] = target: T2, AARS2 (Homo sapiens, UniProt Q5JTZ9, R199C); test: isothermal titration calorimetry (Microcal); format: binding; conditions: read-out: K
T2 construct: full-length human AARS2 985 aa
T2 sequence (Q5JTZ9 11-985 R199C): T1 sequence (Q5JTZ9 11-985) with R189C
Description: isothermal titration calorimetry (Microcal) on AARS2 | For lactate binding to the R199C mutant, the parameters were as follows

AARS2 [3] = target: T1, AARS2; test: isothermal titration calorimetry (Microcal); format: binding; conditions: read-out: K
Description: isothermal titration calorimetry (Microcal) on AARS2 | The parameters of lactate binding to AARS2 were as follows

Kd (AARS2 [2]) [µM] | Kd (AARS2 [3]) [µM] | Compound | inhibition (AARS2 [1])
 |  | NCCC(=O)O [β-alanine] | β-alanine inactivated lactyltransferase activities of both AARS2 and R199C
2.6 to 3.7 | 8.23 to 17.9 | C[C@H](O)C(=O)O [lactate] | 
